# Measurements as given in PubChem BioAssay AID1259321 (Sanford-Burnham Center for Chemical Genomics, 2017).
# Active and inactive are the calls of the source.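 The calls were made as follows: active = half-maximal concentration for changing protein binding to DNA, from the fitted dose curve, below 10 micromolar; inactive = the rest.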
# Target: Nuclear receptor subfamily 1 group D member 1 (Homo sapiens) (UniProt P20393)
# Test: Rev-erbα–DNA interaction modulators – biochemical, FITC-DNA, fluorescence polarization, dose response (AID 1259321)
# Conditions: Rev-erb alpha-FITC-DNA binding
# Sequence of Nuclear receptor subfamily 1 group D member 1 (Homo sapiens) (P20393 whole entry, looked up): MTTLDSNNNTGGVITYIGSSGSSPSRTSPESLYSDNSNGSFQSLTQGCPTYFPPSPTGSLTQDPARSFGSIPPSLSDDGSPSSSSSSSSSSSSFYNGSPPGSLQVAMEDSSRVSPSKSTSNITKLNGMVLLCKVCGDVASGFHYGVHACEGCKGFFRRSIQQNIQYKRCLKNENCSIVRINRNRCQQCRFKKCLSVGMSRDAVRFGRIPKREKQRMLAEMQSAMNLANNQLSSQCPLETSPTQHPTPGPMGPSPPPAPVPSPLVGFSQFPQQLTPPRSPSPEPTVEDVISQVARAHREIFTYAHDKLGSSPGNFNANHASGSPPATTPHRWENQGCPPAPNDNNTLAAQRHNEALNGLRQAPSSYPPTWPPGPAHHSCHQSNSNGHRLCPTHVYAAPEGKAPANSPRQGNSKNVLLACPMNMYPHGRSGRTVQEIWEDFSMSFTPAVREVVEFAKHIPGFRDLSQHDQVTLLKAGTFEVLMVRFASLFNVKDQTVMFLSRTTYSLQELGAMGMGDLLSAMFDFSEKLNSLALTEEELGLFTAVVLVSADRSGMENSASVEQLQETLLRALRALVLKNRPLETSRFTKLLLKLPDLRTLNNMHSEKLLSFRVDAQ
row,SMILES,IC50
1,CN1/C(=C\C=C2C(=O)NC(=S)NC2=O)C(C)(C)c2ccccc21,6.96 µM
2,CCOC(=O)c1nn(-c2ccc(F)cc2)c(=O)cc1OCC(=O)Nc1cccc(C)c1,9.68 µM
3,CCC(C)(C)c1ccc(OCCCC[n+]2ccc(C)cc2)c(C(C)(C)CC)c1,> 40 µM (inactive)
4,Cc1cc(C)c2nc(SCC(=O)Nc3cc(C)on3)c(C#N)cc2c1,4.17 µM
5,Clc1ccccc1-c1nn2c(-c3cc(-c4ccccc4)n[nH]3)nnc2s1,> 40 µM (inactive)
6,O=[N+]([O-])c1ccc(O)c(-c2cc(C(F)(F)F)nc(-c3ccccc3)n2)c1,> 40 µM (inactive)
7,COc1ccc(-c2cc(-c3ccccc3)c(C#N)c(SCC(=O)Nc3ncc(C)s3)n2)cc1,3.58 µM
8,Cc1nc(N2CCC(C)CC2)c2c(C)c(C(=O)Nc3ccc(C)c(F)c3)sc2n1,> 40 µM (inactive)
9,O=c1c2ccccc2nc2sc(Nc3ccc(F)cc3)nn12,inactive
10,Cc1ccccc1OCC(=O)Nc1ccc2c(c1)C(=O)c1ccccc1C2=O,> 40 µM (inactive)
11,CCOc1ccc(OCC)c(NC(=O)c2[nH]c(C)c(C(C)=O)c2C)c1,3.56 µM
12,CCOC(=O)c1c(NC(=O)COC(=O)CCOc2ccccc2C)sc(C(=O)NC)c1C,0.831 µM
13,Cn1c2ccccc2n2c(=O)c(Cl)c(-c3ccccc3)c(C#N)c12,3.4 µM
14,O=C(Cn1c(=S)[nH]c2ccccc2c1=O)NCCc1ccccc1,8.97 µM
15,NS(=O)(=O)c1ccc(CCNC(=O)c2cc(-c3ccccn3)nc3ccc(Br)cc23)cc1,3.78 µM
16,Cc1cccc(NC(=O)C2CCCN(S(=O)(=O)c3cccc4nsnc34)C2)c1 (configuration not stated),2.17 µM
17,Cc1ccc2[nH]c(=O)c(CN(C(=O)c3cccs3)c3ccccc3)cc2c1,3.81 µM
18,CCOC(=O)Nc1ccc2c(COC(=O)CNS(=O)(=O)c3ccc(NC(C)=O)cc3)cc(=O)oc2c1,0.548 µM
19,O=C(CSc1nc2ccccc2nc1N1CCCCC1)N1CCN(S(=O)(=O)c2cc(Cl)ccc2Cl)CC1,4.85 µM
20,Cc1ccc(-c2nc3ccccc3s2)cc1NC(=O)c1cc(-n2cnnc2)ccc1Cl,inactive
21,Nc1ccc2ccc3cccc[n+]3c2c1,8.15 µM

row,SMILES,IC50
1,O=C(CSc1nnnn1-c1ccc2c(c1)OCCO2)c1cccc2c1OCCO2,2.98 µM
2,COc1ccc(OC)c(-c2csc(NC(=O)c3ccc4c(c3)OCO4)n2)c1,3.24 µM
3,C=CCSc1nc(N)c(C#N)c(-c2ccccc2)c1C#N,inactive
4,N#Cc1c(N)nc(SCC(=O)NCc2ccc3c(c2)OCO3)c(C#N)c1-c1cccs1,2.41 µM
5,COc1ccc(C(=O)Nc2nnc(Cc3ccccc3)s2)c(OC)c1,inactive
6,Nc1ccc2nc3c(=O)n(CCc4ccccc4)c(=O)[nH]c3nc2c1,2.89 µM
7,C=CCc1cccc(C2Nc3ccccc3C(=O)N2O)c1O (configuration not stated),7.11 µM
8,CN(C)c1ccc(/C=C/c2cc[n+](C)cc2)cc1,3.47 µM
9,CCC(=O)c1ccc(OCc2ccc(C(=O)c3ccccc3)cc2)cc1,3.02 µM
10,O=[N+]([O-])c1ccc(N2CCCC2)c2ccncc12,> 40 µM (inactive)
11,CCN1/C(=C/c2ccc3cc(C)cc(C)c3[n+]2CC)Sc2cc(C)ccc21,> 40 µM (inactive)
12,Cc1cc(NC(=O)CSc2nc3c(C)cccc3cc2C#N)no1,> 40 µM (inactive)
13,O=S(=O)(N1CCCCC1)N1CCN(CC(O)COc2ccc3cc(Br)ccc3c2)CC1 (configuration not stated),> 40 µM (inactive)
14,O=c1ccc(-c2ccc(S(=O)(=O)N3CCN(c4ccccc4)CC3)o2)n[nH]1,> 40 µM (inactive)
15,O=C(COc1ccc2ccccc2c1Br)NNC(=O)Nc1ccccc1,0.778 µM
16,Cc1c(-c2ccc(Cl)cc2)oc(=O)c2c(N)n(-c3ccccc3)nc12,3.98 µM
17,CCCCCc1nc2c(c(=O)c3ccccc3n2C)c(=O)n1Cc1ccc(OC)cc1,2.96 µM
18,Cn1cncc1C#Cc1ccc2cc(C3(O)CCCCC3)oc(=O)c2c1,inactive
19,CCSc1nnc(-c2ccc(Cl)cc2)c2ccccc12,7.11 µM
20,Cc1nc(SCC(=O)Nc2ccc(F)cc2)c2oc3ccccc3c2n1,inactive
21,COc1cc(-c2nn3c(COc4ccccc4)nnc3s2)cc(OC)c1OC,2.99 µM
